Assays:
[1] = target: CYP2D6 (Homo sapiens, UniProt P10635); experiment: In vitro drug-drug interaction studies: CYP2D6 inhibition; assay type: in vitro ADME; settings: based upon in vitro studies
[2] = Phase I first-in-human study: safety, tolerability and PK of single and multiple doses in healthy volunteers; assay type: in vivo; settings: for AUC(0-t): human, estimated from AUC0-∞ at single dose of 125 mg in phase 1 study Part 3
Experimental: The study was conducted in 3 parts: single-ascending doses (Part 1A), multiple-ascending doses (Part 2), and formulation assessment (Part 1B and Part 3).

[3] = Phase 1 open-label single-dose fixed-sequence study: solid dispersion oral suspension vs crystalline freebase tablet, healthy participants; assay type: in vivo, human; settings: amorphous vs corresponding crystalline preparation
From the text: Each participant received both formulations in 2 separate dosing periods.
The median tmax was longer for the tablet compared with the oral suspension. The geometric mean t1/2 was similar between formulations. […] Between-participant CV for AUC (0-tlast), AUC (0-∞), and Cmax was higher for the tablet compared with the oral suspension.

[4] = target: T1, OATP2B1 (Homo sapiens, UniProt O94956); experiment: In vitro drug-drug interaction studies: OATP2B1 transporter inhibition; assay type: in vitro ADME; settings: based upon in vitro studies
T1 sequence (O94956 1-709): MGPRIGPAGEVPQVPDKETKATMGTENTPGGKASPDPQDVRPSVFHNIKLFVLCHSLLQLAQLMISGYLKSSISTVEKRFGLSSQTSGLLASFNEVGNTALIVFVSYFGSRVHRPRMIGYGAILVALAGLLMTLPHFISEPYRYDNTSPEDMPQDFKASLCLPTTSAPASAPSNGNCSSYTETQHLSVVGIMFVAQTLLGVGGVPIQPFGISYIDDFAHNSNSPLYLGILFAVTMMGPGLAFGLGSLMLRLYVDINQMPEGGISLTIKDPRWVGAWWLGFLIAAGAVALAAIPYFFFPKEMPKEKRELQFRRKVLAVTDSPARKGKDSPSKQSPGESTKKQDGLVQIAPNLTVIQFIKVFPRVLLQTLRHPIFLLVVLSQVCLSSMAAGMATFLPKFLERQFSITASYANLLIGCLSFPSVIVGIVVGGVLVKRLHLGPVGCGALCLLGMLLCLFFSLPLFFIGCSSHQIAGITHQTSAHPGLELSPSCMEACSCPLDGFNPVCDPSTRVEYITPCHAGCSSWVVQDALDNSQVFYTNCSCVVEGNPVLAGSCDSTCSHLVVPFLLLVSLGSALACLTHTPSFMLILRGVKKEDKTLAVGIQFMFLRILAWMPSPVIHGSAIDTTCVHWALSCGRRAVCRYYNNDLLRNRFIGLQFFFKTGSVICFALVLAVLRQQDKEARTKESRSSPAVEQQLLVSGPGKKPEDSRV

[5] = target: T2, BCRP (Homo sapiens, UniProt Q9UNQ0); experiment: In vitro drug-drug interaction studies: BCRP transporter inhibition; assay type: in vitro ADME; settings: based upon in vitro studies
T2 sequence (Q9UNQ0 1-655): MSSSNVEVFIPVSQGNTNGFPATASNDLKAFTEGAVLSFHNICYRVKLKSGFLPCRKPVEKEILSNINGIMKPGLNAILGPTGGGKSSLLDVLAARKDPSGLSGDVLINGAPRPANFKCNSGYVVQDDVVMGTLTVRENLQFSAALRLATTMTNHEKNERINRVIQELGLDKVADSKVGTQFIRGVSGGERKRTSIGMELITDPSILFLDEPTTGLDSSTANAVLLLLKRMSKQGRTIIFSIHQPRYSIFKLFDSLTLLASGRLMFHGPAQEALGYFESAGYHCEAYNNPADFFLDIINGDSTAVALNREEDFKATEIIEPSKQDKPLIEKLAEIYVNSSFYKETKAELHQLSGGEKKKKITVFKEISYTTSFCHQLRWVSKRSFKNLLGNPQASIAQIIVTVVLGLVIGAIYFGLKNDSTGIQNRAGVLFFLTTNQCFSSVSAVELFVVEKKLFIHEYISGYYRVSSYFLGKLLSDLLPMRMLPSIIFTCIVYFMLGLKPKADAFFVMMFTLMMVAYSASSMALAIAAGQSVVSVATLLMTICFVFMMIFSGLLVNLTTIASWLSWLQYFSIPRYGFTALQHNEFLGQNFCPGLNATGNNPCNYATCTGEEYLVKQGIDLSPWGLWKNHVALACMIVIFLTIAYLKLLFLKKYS

[6] = target: CYP2C9 (Homo sapiens, UniProt P11712); experiment: In vitro drug-drug interaction studies: CYP2C9 inhibition; assay type: in vitro ADME; settings: based upon in vitro studies
Chain of CYP2C9 (P11712 whole entry): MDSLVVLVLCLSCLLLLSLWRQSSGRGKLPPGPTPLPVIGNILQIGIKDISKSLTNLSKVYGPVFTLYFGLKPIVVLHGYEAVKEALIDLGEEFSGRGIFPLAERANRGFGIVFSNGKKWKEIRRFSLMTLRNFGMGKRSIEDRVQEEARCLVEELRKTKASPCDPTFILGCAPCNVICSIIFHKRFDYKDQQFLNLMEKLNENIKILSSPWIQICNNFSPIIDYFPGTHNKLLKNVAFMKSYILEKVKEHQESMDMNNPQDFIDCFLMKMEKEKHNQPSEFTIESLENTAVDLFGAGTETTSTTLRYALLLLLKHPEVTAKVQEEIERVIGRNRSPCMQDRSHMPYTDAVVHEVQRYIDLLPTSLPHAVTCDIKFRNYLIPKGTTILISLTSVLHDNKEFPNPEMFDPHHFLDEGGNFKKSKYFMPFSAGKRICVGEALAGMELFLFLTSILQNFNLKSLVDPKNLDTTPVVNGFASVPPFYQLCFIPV

[7] = tested on: CYP3A; experiment: In vitro drug-drug interaction studies: CYP3A inhibition; assay type: in vitro ADME; settings: based upon in vitro studies
[8] = target: T3, CYP2C8 (Homo sapiens, UniProt P10632); experiment: In vitro drug-drug interaction studies: CYP2C8 inhibition; assay type: in vitro ADME; settings: based upon in vitro studies
T3 sequence (P10632 1-490): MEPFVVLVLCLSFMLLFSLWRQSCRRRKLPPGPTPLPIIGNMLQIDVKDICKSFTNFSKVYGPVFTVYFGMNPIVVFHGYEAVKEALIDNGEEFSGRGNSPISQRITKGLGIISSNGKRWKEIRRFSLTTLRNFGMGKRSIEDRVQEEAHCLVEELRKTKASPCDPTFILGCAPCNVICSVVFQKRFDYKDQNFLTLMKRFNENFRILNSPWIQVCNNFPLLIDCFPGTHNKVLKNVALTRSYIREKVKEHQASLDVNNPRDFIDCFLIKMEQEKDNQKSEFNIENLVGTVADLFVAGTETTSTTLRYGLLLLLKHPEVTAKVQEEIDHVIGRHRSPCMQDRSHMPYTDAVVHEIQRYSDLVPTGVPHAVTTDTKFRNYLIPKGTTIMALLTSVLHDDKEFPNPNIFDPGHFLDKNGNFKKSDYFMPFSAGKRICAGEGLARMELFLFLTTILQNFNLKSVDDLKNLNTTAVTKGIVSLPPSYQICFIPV

[9] = tested on: CYP3A; experiment: Preliminary in vitro CYP3A induction data; assay type: in vitro ADME
From the text: Investigators should be aware of participants' concomitant use of CYP3A substrates.

[10] = tested on: rats; experiment: Rat embryofetal development study; assay type: in vivo
[11] = Rat embryofetal development study; assay type: in vivo; settings: female, rat, in vivo, po; plasma toxicokinetics on Gestational Day 17, 1000 mg/kg/day; read-out: AUC0-24 at rat EFD NOEL
[12] = AUC in animals/(predicted) AUC in humans

Chain of CYP2D6 (P10635 whole entry): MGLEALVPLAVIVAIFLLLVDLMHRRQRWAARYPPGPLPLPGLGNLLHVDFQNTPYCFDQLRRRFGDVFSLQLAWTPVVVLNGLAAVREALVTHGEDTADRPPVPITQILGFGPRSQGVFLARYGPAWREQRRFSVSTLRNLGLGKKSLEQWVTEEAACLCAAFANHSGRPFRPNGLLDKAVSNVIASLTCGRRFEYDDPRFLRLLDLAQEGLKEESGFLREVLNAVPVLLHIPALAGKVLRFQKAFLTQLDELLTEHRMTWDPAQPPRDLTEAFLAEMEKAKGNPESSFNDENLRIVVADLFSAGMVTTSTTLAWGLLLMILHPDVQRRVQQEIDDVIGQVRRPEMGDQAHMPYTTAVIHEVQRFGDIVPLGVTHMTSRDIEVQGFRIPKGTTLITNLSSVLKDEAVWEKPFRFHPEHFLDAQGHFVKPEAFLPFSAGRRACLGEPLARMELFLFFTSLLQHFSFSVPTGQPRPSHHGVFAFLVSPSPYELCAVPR

## CN1C(=O)[C@@H](NC(=O)c2n[nH]c(Cc3ccccc3)n2)COc2ccc(C#CC(C)(C)O)cc21 [Compound I, (S)-5-benzyl-N-(7-(3-hydroxy-3-methylbut-1-yn-1-yl)-5-methyl-4-oxo-2,3,4,5-tetrahydrobenzo[b][1,4]oxazepin-3-yl)-1H-1,2,4-triazole-3-carboxamide]
[1]
  inhibition of drugs metabolized by CYP2D6: may inhibit
[2]; dose range of 12 to 1000 mg
  Exposure versus dose: increased in a proportional manner
[2]; plasma, oral, 0.7 mg/kg/day, read-out: AUC0-24, human dose 50 mg
  AUC(0-t): 16000 ng·h/mL
[2]; plasma, oral, 1.8 mg/kg/day, read-out: AUC0-24, human dose 125 mg
  AUC(0-t): 40100 ng·h/mL
[2]; plasma, oral, human subjects
  half-life: 780 to 900 min
[3]
  bioavailability, amorphous state (solid dispersion) over crystalline form: significantly improved
[4]
  inhibition of substrates of OATP2B1 transporter: may also inhibit
[5]
  inhibition of substrates of BCRP transporter: may also inhibit
[6]
  inhibition of drugs metabolized by CYP2C9: may inhibit
[7]
  inhibition of drugs metabolized by CYP3A: may inhibit
[8]
  inhibition of drugs metabolized by CYP2C8: may inhibit
[9]
  induction of CYP3A: weak inducer
[10]; [12]
  Margin of Safety, rat EFD NOEL vs human 50 mg: 70 X
  Margin of Safety, rat EFD NOEL vs human 125 mg: 28 X
[10]; concerns for women of childbearing potential
  developmental and reproductive toxicology outcome, rats: did not reveal any concerns
[10]; rat embryofetal development study
  Rat EFD NOEL dose: 1000 mg/kg/day
[11]
  AUC(0-t): 1120 µg·h/mL

— patent US20250000872A1, “FORMULATIONS AND DOSING REGIMENS FOR RIP1 KINASE INHIBITORS FOR TREATING AUTOIMMUNE AND INFLAMMATORY DISEASES” (Eli Lilly and Company, priority 2023, published 2025)
